According to publication PMC7139549, “TLD1433 Photosensitizer Inhibits Conjunctival Melanoma Cells in Zebrafish Ectopic and Orthotopic Tumour Models” (Cancers, 2020):
Like-named read-outs stand apart in the source and are kept apart here.

System: CRMM1 conjunctival melanoma cell line
Test: SRB cell viability assay, CRMM1
Assay type: cell-based, Human
Procedure: TLD1433 is known to generate reactive oxygen species (ROS) with high quantum efficacy in many cancer cell lines. However, there is no report of the in vitro toxicity of this compound in eye melanoma (UM) cell lines. We determined the cell viability of three conjunctival melanoma cell lines (CRMM1, CRMM2 and CM2005.1), and three uveal melanoma cell lines (OMM1, OMM2.5, MEL270) in the presence of TLD1433, both in the dark or under green light irradiation (21 mW/cm^2, 19 J/cm^2, 520 nm, 15 min), and compared this viability to epidermoid carcinoma A431 and cutaneous melanoma A375 cell lines under the same conditions. The protocol used was based on previous work from the Bonnet group, and differed slightly from recommendations from McFarland et al.. […] The effective concentration (EC50) values, i.e., the concentration required to reduce cell viability by 50% compared to untreated wells, were assessed by fitting the dose-response curves with a Hill equation. The phototoxicity index (PI), defined as the ratio of the dark EC50 to the light EC50, was also calculated and represents the amplification of TLD1433 activity with a light trigger. […]
Figure 2 Cell viability after TLD1433 treatment of eight tumour cell lines (CRMM1, CRMM2, CM2005.1, OMM1, OMM2.5, MEL270, A431, A375). […] The absorbance of Sulforhodamine B in solution was measured at 520 nm. […]
At day 0, cells were detached using 1mL of trypsin, resuspended in 4 mL of media and transferred to a 15 mL corning falcon tube. Cells were counted using trypan blue and BioRad® TC20™ automated cell counter (Figure 11). Dilutions of 6000 (CRMM1), 6000 (CRMM2), 8000 (CM2005.1), 6000 (OMM1), 6000 (OMM2.5), 6000 (MEL270) 8000 (A431), and 4000 (A375) cells/well were calculated from each cell suspension at a final volume of 6 mL using the following formula: Vc=(Vt×10C)/Lc where Vt = total volume of solution, C = number of cells per well/per 100 μL and Lc = live cells count (cells/mL). […] Next day, the dye was dissolved using Tri-base (0.25%) and absorbance of SRB at 510 nm was recorded from each well using a Tecan plate reader. […]

For `Cc1ccnc(-c2cc(C)ccn2)c1.Cc1ccnc(-c2cc(C)ccn2)c1.[Cl-].[Cl-].[Ru+2].c1csc(-c2ccc(-c3ccc(-c4nc5c6cccnc6c6ncccc6c5[nH]4)s3)s2)c1` [TLD1433], the EC50 (CRMM1, dark, 24 h treatment, SRB, read-out: EC50, dark) was 840 nM, the EC50 (CRMM1, green light 520 nm, 15 min, 21 mW/cm^2, 19 J.cm^−2, DLI 24 h, read-out: EC50,light) was 5.9 nM and the “PI (photo index)” value (CRMM1, ratio of dark and light EC50, 19 J.cm^−2 green light) was 140.
